Reference: patent US11477982B2, “2-amino-5-oxyalkyl-pyrimidine derivatives and their use for controlling undesired plant growth” (Bayer CropScience Aktiengesellschaft, priority 2017, dated 2022)

Columns and labels:
Type in all cases: in vivo
[1] = tested on: POLCO: Polygonum convolvulus; test: Pre-emergence herbicidal effect; conditions: for Herbicidal action against POLCO: dosage 320 g/ha
Procedure, shortened: (§1)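 Seeds sown in pots and covered with soil; compounds formulated as WP or EC were sprayed onto the soil surface as aqueous suspension/emulsion with 0.5% additive at 600 l/ha water. Greenhouse growth for about 3 weeks, then visual scoring in % versus untreated controls (100% = plants died, 0% = like control).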

[2] = tested on: LOLRI: Lolium rigidum; test: Pre-emergence herbicidal effect; conditions: for Herbicidal action against LOLRI: dosage 320 g/ha
Procedure, shortened: as §1

[3] = tested on: SETVI: Setaria viridis; test: Pre-emergence herbicidal effect; conditions: for Herbicidal action against SETVI: dosage 320 g/ha
Procedure, shortened: as §1

[4] = tested on: STEME: Stellaria media; test: Pre-emergence herbicidal effect; conditions: for Herbicidal action against STEME: pre-emergence, dosage 320 g/ha
Procedure, shortened: as §1

[5] = tested on: VERPE: Veronica persica; test: Pre-emergence herbicidal effect; conditions: dosage 320 g/ha
Procedure, shortened: as §1

[6] = tested on: ECHCG: Echinochloa crus-galli; test: Pre-emergence herbicidal effect; conditions: for Herbicidal action against ECHCG: dosage 320 g/ha
Procedure, shortened: as §1

[7] = tested on: VIOTR: Viola tricolor; test: Pre-emergence herbicidal effect; conditions: dosage 320 g/ha
Procedure, shortened: as §1

[8] = tested on: AMARE: Amaranthus retroflexus; test: Pre-emergence herbicidal effect; conditions: for Herbicidal action against AMARE: pre-emergence, dosage 320 g/ha
Procedure, shortened: as §1

[9] = tested on: HORMU: Hordeum murinum; test: Pre-emergence herbicidal effect; conditions: for Herbicidal action against HORMU: pre-emergence, dosage 320 g/ha
Procedure, shortened: as §1

[10] = tested on: MATIN: Matricaria inodora; test: Pre-emergence herbicidal effect; conditions: for Herbicidal action against MATIN: pre-emergence, dosage 320 g/ha
Procedure, shortened: as §1

[11] = tested on: PHBPU: Ipomoea purpurea; test: Pre-emergence herbicidal effect; conditions: for Herbicidal action against PHBPU: dosage 320 g/ha
Procedure, shortened: as §1

[12] = tested on: ALOMY: Alopecurus myosuroides; test: Pre-emergence herbicidal effect; conditions: for Herbicidal action against ALOMY: dosage 320 g/ha
Procedure, shortened: as §1

[13] = tested on: ABUTH: Abutilon theophrasti; test: Pre-emergence herbicidal effect; conditions: for Herbicidal action against ABUTH: dosage 320 g/ha
Procedure, shortened: as §1

[14] = tested on: AVEFA: Avena fatua; test: Pre-emergence herbicidal effect; conditions: dosage 320 g/ha
Procedure, shortened: as §1

[15] = tested on: SETVI: Setaria viridis; test: Post-emergence herbicidal effect; conditions: dosage 320 g/ha
Procedure, shortened: (§2)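 Weeds grown from seed in sandy loam in the greenhouse were sprayed at the one-leaf stage, 2 to 3 weeks after sowing. Compounds formulated as WP or EC were applied as aqueous suspension or emulsion with 0.5% additive at 600 l/ha. Activity was scored visually after about 3 weeks versus untreated controls (100% = dead, 0% = as control).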

[16] = tested on: STEME: Stellaria media; test: Post-emergence herbicidal effect; conditions: dosage 320 g/ha
Procedure, shortened: as §2

[17] = tested on: VERPE: Veronica persica; test: Post-emergence herbicidal effect; conditions: dosage 320 g/ha
Procedure, shortened: as §2

[18] = tested on: ECHCG: Echinochloa crus-galli; test: Post-emergence herbicidal effect; conditions: dosage 320 g/ha
Procedure, shortened: as §2

[19] = tested on: VIOTR: Viola tricolor; test: Post-emergence herbicidal effect; conditions: dosage 320 g/ha
Procedure, shortened: as §2

[20] = tested on: AMARE: Amaranthus retroflexus; test: Post-emergence herbicidal effect; conditions: dosage 320 g/ha
Procedure, shortened: as §2

[21] = tested on: ABUTH: Abutilon theophrasti; test: Post-emergence herbicidal effect; conditions: dosage 320 g/ha
Procedure, shortened: as §2

[22] = Table 4a, dosage 20 g of a.i./ha
[23] = Table 4a, pre-emergence, dosage 20 g of a.i./ha
[24] = Table 4b, pre-emergence as titled, dosage 80 g of a.i./ha

Row | Compound | Herbicidal action against POLCO [1] | Herbicidal action against LOLRI [2] | Herbicidal action against SETVI ([3]; pre-emergence) | Herbicidal action against STEME [4] | Herbicidal action against VERPE [5] | Herbicidal action against ECHCG ([6]; pre-emergence) | Herbicidal action against VIOTR [7] | Herbicidal action against AMARE [8] | Herbicidal action against HORMU [9] | Herbicidal action against MATIN [10] | Herbicidal action against PHBPU [11] | Herbicidal action against ALOMY ([12]; pre-emergence) | Herbicidal action against ABUTH [13] | Herbicidal action against AVEFA [14] | Herbicidal action against SETVI [15] | Herbicidal action against STEME [16] | Herbicidal action against VERPE [17] | Herbicidal action against ECHCG [18] | Herbicidal action against VIOTR [19] | Herbicidal action against AMARE [20] | other results
1 | Cc1nc(N[C@@H]2CCc3ccccc32)ncc1C(C)(C)O [Example 1.54] | 100% | 100% | 100% | 100% | 100% | 100% | 100% | 100% | 100% | 100% | 100% | 100% | 100% | 80% | 80% | 90% | 90% | 100% | 90% | 90% | Herbicidal action against ABUTH [21]: 80%
2 | Cc1ccc2c(c1)C(Nc1ncc(C(C)(C)O)c(C)n1)CCC2 (racemic) [Example 1.52] | 100% | 100% | 100% | 100% | 100% | 100% | 100% | 100% | 100% | 100% | 100% | 100% | 100% | 100% | 80% | 100% | 90% | 100% | 90% | 90% | Herbicidal efficacy against POLCO [1, 22]: 100; Herbicidal efficacy against LOLRI [2, 22]: 60; Herbicidal efficacy against SETVI [3, 23]: 100; Herbicidal efficacy against SETVI [3, 24]: 80; Herbicidal efficacy against STEME [4, 24]: 90; Herbicidal efficacy against ECHCG [6, 23]: 100; Herbicidal efficacy against ECHCG [6, 24]: 70; Herbicidal efficacy against AMARE [8, 24]: 80; Herbicidal efficacy against HORMU [9, 24]: 90; Herbicidal efficacy against MATIN [10, 24]: 70; Herbicidal efficacy against PHBPU [11, 22]: 100; Herbicidal efficacy against ALOMY [12, 23]: 90; Herbicidal efficacy against ALOMY [12, 24]: 90; Herbicidal efficacy against ABUTH [13, 22]: 100; Herbicidal action against ABUTH [21]: 90%
3 | CCC(C)(O)c1cnc(N[C@H]2c3cc(C)ccc3C[C@@H]2C)nc1 (some centres unmarked) [Example 1.14] | 100% | 100% | 100% | 100% | 100% | 100% | 100% | 100% | 100% | 100% | 100% | 100% | 100% | 100% | 90% | 100% | 90% | 100% | 90% | 100% | Herbicidal action against ABUTH [21]: 90%
4 | CCc1ccc2c(c1)[C@H](Nc1ncc(C(C)O)c(C)n1)CC2 (some centres unmarked) [Example 1.50] | 100% | 100% | 100% | 100% | 100% | 100% | 100% | 100% | 90% | 100% | 100% | 100% | 100% | 100% | 90% | 100% | 90% | 100% | 90% | 90% | Herbicidal action against ABUTH [21]: 80%
5 | Cc1ccc2c(c1)[C@H](Nc1ncc(C(C)(C)O)cn1)CC2 [Example 1.5] | 100% | 100% | 100% | 100% | 100% | 100% | 100% | 100% | 100% | 100% | 100% | 100% | 100% | 100% | 90% | 100% | 90% | 100% | 90% | 100% | Herbicidal action against ABUTH [21]: 100%
6 | CCC(O)(CC)c1cnc(N[C@H]2c3cc(C)ccc3C[C@@H]2C)nc1 [Example 1.10] | 100% | 100% | 100% | 100% | 100% | 100% | 100% | 100% | 100% | 100% | 80% | 100% | 100% | 100% | 80% | 100% | 90% | 100% | 90% | 90% | Herbicidal action against ABUTH [21]: 90%
